Reference: ChEMBL document CHEMBL1629525, “Synthesis and characterization of 1,3-dihydro-benzo[b][1,4]diazepin-2-one derivatives: Part 4. In vivo active potent and selective non-competitive metabotropic glutamate receptor 2/3 antagonists” (Bioorg Med Chem Lett, 2010)
pIC50: −log10 of the molar value. ≈ marks a conversion by molar mass, not a printed value.

Assays:
[1] = target: T1, Metabotropic glutamate receptor 2 (Rattus norvegicus, UniProt P31421); assay: Partial displacement of [3H]LY354740 from recombinant rat mGluR2
T1 sequence (P31421 whole entry): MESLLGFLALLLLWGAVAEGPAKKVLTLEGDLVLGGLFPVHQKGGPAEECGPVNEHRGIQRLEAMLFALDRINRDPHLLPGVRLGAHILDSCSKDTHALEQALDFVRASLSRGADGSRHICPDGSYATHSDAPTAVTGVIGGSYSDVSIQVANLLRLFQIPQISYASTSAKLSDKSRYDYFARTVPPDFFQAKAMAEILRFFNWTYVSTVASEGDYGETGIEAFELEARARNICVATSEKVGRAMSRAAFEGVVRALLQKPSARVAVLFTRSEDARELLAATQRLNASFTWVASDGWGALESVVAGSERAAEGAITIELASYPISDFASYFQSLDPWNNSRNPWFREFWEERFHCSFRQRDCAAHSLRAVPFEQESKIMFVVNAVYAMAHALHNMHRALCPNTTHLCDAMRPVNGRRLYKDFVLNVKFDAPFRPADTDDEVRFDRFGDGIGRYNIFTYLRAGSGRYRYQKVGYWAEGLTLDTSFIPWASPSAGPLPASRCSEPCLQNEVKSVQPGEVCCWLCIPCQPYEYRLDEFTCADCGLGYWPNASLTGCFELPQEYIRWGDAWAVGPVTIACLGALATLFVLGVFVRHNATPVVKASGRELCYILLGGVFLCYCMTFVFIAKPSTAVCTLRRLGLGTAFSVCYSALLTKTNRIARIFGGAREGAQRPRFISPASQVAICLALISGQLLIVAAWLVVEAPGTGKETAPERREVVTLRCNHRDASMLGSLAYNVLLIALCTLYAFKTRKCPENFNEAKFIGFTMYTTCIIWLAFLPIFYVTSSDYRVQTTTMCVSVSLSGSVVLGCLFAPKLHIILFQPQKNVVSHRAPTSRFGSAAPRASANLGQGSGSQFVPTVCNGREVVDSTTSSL

[2] = target: T1, Metabotropic glutamate receptor 2; assay: Antagonist activity at recombinant rat mGluR2 expressed in forskolin-stimulated CHO cells assessed as inhibition of (1S,3R)-ACPD induced cAMP production; format: functional, cell-based
[3] = target: Metabotropic glutamate receptor 3 (Rattus norvegicus, UniProt P31422); assay: Antagonist activity at rat mGluR3 receptor expressed in CHO cells assessed as inhibition of GIRK current; format: functional, cell-based
Sequence of Metabotropic glutamate receptor 3 (P31422 whole entry): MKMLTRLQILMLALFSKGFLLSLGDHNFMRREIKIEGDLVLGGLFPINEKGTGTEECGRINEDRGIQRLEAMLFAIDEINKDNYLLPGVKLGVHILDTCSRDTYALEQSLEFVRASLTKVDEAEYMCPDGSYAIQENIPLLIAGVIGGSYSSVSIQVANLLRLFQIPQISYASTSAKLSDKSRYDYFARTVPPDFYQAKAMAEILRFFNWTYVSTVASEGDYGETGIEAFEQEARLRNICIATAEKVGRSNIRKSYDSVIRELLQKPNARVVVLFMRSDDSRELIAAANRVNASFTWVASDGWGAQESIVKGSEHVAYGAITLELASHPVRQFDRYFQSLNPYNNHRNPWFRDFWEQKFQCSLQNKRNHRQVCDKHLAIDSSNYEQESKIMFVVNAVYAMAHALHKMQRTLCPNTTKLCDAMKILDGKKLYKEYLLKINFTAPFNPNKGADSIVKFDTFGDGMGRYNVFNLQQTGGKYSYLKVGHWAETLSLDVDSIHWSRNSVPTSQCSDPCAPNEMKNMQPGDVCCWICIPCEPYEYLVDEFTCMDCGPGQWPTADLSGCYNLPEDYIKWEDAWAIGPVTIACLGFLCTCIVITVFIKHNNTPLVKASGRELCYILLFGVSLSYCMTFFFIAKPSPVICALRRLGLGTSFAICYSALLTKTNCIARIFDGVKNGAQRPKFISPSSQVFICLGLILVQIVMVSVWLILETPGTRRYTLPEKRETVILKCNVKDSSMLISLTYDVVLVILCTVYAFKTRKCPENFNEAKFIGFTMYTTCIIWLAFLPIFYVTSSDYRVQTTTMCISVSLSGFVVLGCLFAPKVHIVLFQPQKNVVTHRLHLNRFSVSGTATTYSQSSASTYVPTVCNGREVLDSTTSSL

[4] = target: Metabotropic glutamate receptor 2 (Homo sapiens, UniProt Q14416); assay: Antagonist activity at human mGluR2 receptor expressed in CHO cells assessed as inhibition of GIRK current; format: functional, cell-based
Sequence of Metabotropic glutamate receptor 2 (Homo sapiens, UniProt Q14416) (Q14416 whole entry): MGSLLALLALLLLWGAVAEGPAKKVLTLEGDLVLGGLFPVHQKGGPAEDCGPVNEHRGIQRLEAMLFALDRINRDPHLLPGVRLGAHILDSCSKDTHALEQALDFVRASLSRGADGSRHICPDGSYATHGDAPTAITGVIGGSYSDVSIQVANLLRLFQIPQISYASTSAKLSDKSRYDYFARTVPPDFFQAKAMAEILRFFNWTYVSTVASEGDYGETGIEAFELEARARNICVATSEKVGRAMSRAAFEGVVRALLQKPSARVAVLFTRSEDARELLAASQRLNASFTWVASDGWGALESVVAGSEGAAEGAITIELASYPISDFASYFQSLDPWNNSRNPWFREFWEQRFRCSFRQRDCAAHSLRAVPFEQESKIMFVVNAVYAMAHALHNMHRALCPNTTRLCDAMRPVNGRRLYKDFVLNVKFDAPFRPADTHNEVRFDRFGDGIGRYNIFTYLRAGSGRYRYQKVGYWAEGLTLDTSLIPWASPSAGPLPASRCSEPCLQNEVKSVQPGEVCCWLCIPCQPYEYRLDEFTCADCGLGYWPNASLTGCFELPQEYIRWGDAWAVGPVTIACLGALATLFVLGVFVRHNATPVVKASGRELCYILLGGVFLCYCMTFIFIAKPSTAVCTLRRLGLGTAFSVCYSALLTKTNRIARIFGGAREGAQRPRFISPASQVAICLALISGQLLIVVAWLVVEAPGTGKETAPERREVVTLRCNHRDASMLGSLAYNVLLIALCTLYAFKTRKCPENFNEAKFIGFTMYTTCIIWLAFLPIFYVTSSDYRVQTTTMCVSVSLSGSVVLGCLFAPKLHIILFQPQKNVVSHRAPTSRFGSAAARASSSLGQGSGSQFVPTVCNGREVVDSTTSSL

Cytochrome P450 3A4 = Cytochrome P450 3A4 (Homo sapiens, UniProt P08684); assay: Inhibition of CYP3A4; format: ADME
Sequence of Cytochrome P450 3A4 (P08684 whole entry): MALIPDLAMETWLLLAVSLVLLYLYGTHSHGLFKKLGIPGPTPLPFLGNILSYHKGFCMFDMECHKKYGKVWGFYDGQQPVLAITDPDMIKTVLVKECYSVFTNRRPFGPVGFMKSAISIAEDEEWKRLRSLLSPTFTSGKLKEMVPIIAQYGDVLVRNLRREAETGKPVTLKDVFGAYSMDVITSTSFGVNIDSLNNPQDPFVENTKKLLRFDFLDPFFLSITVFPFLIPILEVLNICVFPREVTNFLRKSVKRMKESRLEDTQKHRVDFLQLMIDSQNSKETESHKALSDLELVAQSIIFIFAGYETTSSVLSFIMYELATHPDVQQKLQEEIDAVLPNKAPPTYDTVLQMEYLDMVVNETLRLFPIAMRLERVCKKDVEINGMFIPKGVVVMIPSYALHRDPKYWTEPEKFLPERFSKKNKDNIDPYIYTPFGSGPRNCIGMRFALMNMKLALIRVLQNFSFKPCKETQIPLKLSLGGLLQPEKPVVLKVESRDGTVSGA

[5] = target: T1, Metabotropic glutamate receptor 2; assay: Antagonist activity at rat mGluR2 receptor expressed in CHO cells assessed as inhibition of GIRK current; format: functional, cell-based
[6] = Thermodynamic solubility of the compound at pH 3; format: physicochemical; details: buffer

SMILES	pIC50 [1]	pIC50 [2]	further results
Cc1cc(-c2cccc(C3=Nc4cc(Cl)c(Cl)cc4NC(=O)C3)c2)ccn1	8.40	8.70	pIC50 [3]: 7.52; pIC50 [4]: 8.15
Cc1ccc2c(c1)NC(=O)CC(c1ccccc1)=N2	5.19		
Cc1cc(-c2cccc(C3=Nc4cc(C)c(C(F)(F)F)cc4NC(=O)C3)c2)cc(CO)n1	7.85	7.82	
Cc1cc2c(cc1C(F)(F)F)NC(=O)CC(c1cccc(-c3cccnc3)c1)=N2	8.70	8.52	pIC50 (Cytochrome P450 3A4): 5.74
Cc1cc2c(cc1C(F)(F)F)NC(=O)CC(c1cccc(-c3ccnc(C4CCCC4)c3)c1)=N2	8.00	8.15	
Cc1cc2c(cc1C(F)(F)F)NC(=O)CC(c1cccc(-c3ccnc(Cc4ccccc4)c3)c1)=N2	7.80	8.30	
O=C1CC(c2cccc(-c3ccncc3)c2)=Nc2ccc(Cl)cc2N1	8.10	8.52	pIC50 [4]: 8.00
Cc1cc(-c2cccc(C3=Nc4cc(C)c(C(F)(F)F)cc4NC(=O)C3)c2)cc(C2CC2)n1	8.70	8.40	
Cc1cc2c(cc1C(F)(F)F)NC(=O)CC(c1cccc(-c3cncnc3)c1)=N2	7.64	7.32	
CCc1cc(-c2cccc(C3=Nc4cc(C)c(C(F)(F)F)cc4NC(=O)C3)c2)cc(C)n1	8.70	8.40	
COc1ccc(-c2cccc(C3=Nc4cc(C)c(C(F)(F)F)cc4NC(=O)C3)c2)cn1	8.30	8.00	
Cc1cc2c(cc1C(F)(F)F)NC(=O)CC(c1cccc(-n3cncn3)c1)=N2	8.10	7.12	
Cc1cc2c(cc1C(F)(F)F)NC(=O)CC(c1cccc(-c3ccnc(C4CC4)c3)c1)=N2	8.00	8.22	
CCOc1cc2c(cc1C(F)(F)F)NC(=O)CC(c1cccc(-c3ccnc(C)c3)c1)=N2	8.22	8.10	pIC50 [3]: 8.52; pIC50 [4]: 7.82

Continued, in another order:

pIC50 [1]	pIC50 [2]	SMILES	further results
7.07		Cc1cc2c(cc1C(F)(F)F)NC(=O)CC(c1cccc(-c3ccc(N(C)C)nc3)c1)=N2	
7.89	7.74	Cc1cc2c(cc1C(F)(F)F)NC(=O)CC(c1cccc(-c3ccnc(CO)c3)c1)=N2	
8.30	8.05	Cc1cc(-c2cccc(C3=Nc4cc(C)c(C(F)(F)F)cc4NC(=O)C3)c2)on1	
7.40	7.85	Cc1cc2c(cc1C(F)(F)F)NC(=O)CC(c1cccc(-c3ccnc(C(C)(C)O)c3)c1)=N2	
6.93		Cc1cc2c(cc1C(F)(F)F)NC(=O)CC(c1cccc(-c3ccnc(-c4ccccc4)c3)c1)=N2	
8.40	8.00	CCOc1cc2c(cc1C(F)(F)F)NC(=O)CC(c1cccc(-c3ccncc3)c1)=N2	pIC50 [5]: 8.10; pIC50 [3]: 8.22; pIC50 [4]: 7.42
7.92	7.74	Cc1cc2c(cc1C(F)(F)F)NC(=O)CC(c1cccc(-c3ccnc(C#N)c3)c1)=N2	
8.15	8.15	Cc1cc(-c2cccc(C3=Nc4cc(C(F)(F)F)c(C(F)(F)F)cc4NC(=O)C3)c2)cc(C)n1	
8.40	7.96	Cc1cc2c(cc1C(F)(F)F)NC(=O)CC(c1cccc(-c3ccncc3)c1)=N2	pIC50 (Cytochrome P450 3A4): 6.70; solubility thermodynamic [6]: 5 µg/mL (≈ 12.6 µM)
8.10	8.30	COCc1cc(-c2cccc(C3=Nc4cc(C)c(C(F)(F)F)cc4NC(=O)C3)c2)cc(C)n1	
6.56		Cc1cc2c(cc1C(F)(F)F)NC(=O)CC(c1cccc(-c3ccnc(CN(C)C)c3)c1)=N2	
